One molecule from US10800781B2, “Compounds useful as inhibitors of ATR kinase” (Vertex Pharmaceuticals Incorporated, priority 2014, dated 2020) can be followed below.

Assay [1] relates to HCT116 colorectal cancer cells. Briefly: Cisplatin sensitization assay, 96 h cell viability (MTS). The assay is classed as cell-based. The following applies: compound and Cisplatin added simultaneously. As for the experimental part: Compounds can be screened for their ability to sensitize HCT116 colorectal cancer cells to Cisplatin using a 96 h cell viability (MTS) assay. […] Compounds and Cisplatin are then both added simultaneously to the cell media in 2-fold serial dilutions from a top final concentration of 10 μM as a full matrix of concentrations in a final cell volume of 200 μl, and the cells are then incubated at 37° C. in 5% CO2. After 96 h, 40 μl of MTS reagent (Promega G358a) is added to each well and the cells are incubated for 1 h at 37° C. in 5% CO2. Finally, absorbance is measured at 490 nm using a SpectraMax Plus 384 reader (Molecular Devices) and the concentration of compound required to reduce the IC50 of Cisplatin alone by at least 3-fold (to 1 decimal place) can be reported.

The target of another assay is T1, full-length ATR (Homo sapiens, UniProt Q13535).
T1 construct: Assays are carried out at 25° C. in the presence of 5 nM full-length ATR
T1 sequence (Q13535 whole entry): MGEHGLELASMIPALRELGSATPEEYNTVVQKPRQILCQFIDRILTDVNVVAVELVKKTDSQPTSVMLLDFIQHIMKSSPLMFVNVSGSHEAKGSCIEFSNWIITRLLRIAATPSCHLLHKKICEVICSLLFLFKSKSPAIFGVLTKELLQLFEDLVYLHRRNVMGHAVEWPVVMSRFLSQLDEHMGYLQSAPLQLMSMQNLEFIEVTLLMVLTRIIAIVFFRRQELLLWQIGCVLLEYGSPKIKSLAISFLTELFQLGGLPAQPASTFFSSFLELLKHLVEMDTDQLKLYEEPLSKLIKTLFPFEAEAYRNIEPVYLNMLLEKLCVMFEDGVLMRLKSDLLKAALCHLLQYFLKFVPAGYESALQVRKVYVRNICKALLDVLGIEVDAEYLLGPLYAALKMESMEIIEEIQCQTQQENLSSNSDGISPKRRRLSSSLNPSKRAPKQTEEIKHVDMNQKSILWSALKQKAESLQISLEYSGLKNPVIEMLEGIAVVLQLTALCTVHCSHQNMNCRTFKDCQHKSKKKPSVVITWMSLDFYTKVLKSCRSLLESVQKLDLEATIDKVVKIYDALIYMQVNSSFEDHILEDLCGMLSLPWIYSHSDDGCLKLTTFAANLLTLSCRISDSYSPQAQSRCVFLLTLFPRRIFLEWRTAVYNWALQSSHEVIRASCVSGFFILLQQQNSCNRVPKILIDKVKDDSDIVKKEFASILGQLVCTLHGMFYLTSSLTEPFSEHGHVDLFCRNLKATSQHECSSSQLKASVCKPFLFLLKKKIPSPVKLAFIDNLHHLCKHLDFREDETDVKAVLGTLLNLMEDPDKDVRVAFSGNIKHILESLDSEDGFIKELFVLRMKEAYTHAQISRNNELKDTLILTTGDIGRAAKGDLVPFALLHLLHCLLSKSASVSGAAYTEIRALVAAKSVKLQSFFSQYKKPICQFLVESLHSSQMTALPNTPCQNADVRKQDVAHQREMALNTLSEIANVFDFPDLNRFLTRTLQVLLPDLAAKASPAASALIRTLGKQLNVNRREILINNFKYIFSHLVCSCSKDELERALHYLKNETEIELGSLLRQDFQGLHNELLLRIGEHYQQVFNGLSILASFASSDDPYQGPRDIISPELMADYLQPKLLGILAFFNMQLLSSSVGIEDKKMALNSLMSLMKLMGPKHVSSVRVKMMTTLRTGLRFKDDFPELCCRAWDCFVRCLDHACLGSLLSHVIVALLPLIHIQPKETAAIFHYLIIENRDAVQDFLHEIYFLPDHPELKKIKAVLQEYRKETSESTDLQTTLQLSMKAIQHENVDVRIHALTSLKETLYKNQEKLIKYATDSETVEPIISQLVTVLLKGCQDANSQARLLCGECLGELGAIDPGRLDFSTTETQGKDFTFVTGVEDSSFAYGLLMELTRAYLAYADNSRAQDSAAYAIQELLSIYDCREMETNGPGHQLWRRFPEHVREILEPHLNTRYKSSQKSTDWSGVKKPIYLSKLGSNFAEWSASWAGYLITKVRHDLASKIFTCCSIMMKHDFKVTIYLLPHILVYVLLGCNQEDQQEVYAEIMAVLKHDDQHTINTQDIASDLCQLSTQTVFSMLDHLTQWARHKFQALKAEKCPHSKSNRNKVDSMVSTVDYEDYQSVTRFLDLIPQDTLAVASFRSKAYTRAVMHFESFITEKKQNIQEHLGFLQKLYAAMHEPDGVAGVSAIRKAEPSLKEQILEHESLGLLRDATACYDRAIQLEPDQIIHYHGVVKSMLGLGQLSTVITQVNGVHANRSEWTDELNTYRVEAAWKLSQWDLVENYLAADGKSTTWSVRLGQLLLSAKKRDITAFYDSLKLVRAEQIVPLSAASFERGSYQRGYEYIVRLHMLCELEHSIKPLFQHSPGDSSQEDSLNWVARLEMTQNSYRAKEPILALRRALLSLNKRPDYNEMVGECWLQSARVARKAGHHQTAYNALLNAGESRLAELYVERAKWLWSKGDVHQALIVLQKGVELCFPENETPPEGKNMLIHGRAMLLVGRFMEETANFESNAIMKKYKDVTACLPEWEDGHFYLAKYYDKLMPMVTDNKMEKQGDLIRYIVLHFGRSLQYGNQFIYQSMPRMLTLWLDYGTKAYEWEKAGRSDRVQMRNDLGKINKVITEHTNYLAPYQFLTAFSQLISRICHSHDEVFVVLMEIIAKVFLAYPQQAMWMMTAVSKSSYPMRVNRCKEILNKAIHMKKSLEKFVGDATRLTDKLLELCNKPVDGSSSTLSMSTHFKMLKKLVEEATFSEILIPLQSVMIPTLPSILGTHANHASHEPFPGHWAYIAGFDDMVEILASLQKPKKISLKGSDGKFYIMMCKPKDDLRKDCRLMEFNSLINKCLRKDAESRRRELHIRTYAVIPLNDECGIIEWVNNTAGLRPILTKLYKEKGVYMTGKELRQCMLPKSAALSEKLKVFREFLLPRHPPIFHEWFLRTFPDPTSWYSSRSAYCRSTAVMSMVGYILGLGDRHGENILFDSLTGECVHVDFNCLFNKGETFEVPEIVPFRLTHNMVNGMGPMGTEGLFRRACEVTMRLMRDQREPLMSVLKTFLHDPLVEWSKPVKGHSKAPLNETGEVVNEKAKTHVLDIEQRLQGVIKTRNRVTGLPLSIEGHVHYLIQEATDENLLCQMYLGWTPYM
The assay can be described thus: ATR inhibition assay (radioactive-phosphate incorporation). The class given is biochemical. The following applies: 5 nM full-length ATR, 10 μM ATP, 800 μM target peptide, 25° C.; read-out: Ki values (Ki(app)) for inhibiting ATR. As to the method: Compounds can be screened for their ability to inhibit ATR kinase using a radioactive-phosphate incorporation assay. Assays are carried out in a mixture of 50 mM Tris/HCl (pH 7.5), 10 mM MgCl2 and 1 mM DTT. Final substrate concentrations are 10 μM [γ-33P]ATP (3mCi 33P ATP/mmol ATP, Perkin Elmer) and 800 μM target peptide (ASELPASQPQPFSAKKK).
Assays are carried out at 25° C. in the presence of 5 nM full-length ATR. An assay stock buffer solution is prepared containing all of the reagents listed above, with the exception of ATP and the test compound of interest. 13.5 μL of the stock solution is placed in a 96 well plate followed by addition of 2 μL of DMSO stock containing serial dilutions of the test compound (typically starting from a final concentration of 15 μM with 3-fold serial dilutions) in duplicate (final DMSO concentration 7%). The plate is pre-incubated for 10 minutes at 25° C. and the reaction initiated by addition of 15 μL [γ-33P]ATP (final concentration 10 μM).
The reaction is stopped after 24 hours by the addition of 30 μL 0.1M phosphoric acid containing 2 mM ATP. […]
After removing mean background values for all of the data points, Ki(app) data are calculated from non-linear regression analysis of the initial rate data using the Prism software package (GraphPad Prism version 3.0cx for Macintosh, GraphPad Software, San Diego Calif., USA).

As for `Cn1cncc1-c1c(F)cncc1NC(=O)c1c(N)nn2cc(F)cnc12` [Compound I-1, 2-amino-6-fluoro-N-(5-fluoro-4-(1-methyl-1H-imidazol-5-yl)pyridin-3-yl)pyrazolo[1,5-a]pyrimidine-3-carboxamide], the “Cisplatin sensitization values (concentration of compound required to reduce the IC50 of Cisplatin alone by at least 3-fold)” value in assay [1] was below 200 nM. For the same molecule, the Ki on full-length ATR is below 1000 nM.
